# In patent US20150037255A1, “PHTHALOCYANINE DYE-CONTAINING CONTRAST AGENT FOR PHOTOACOUSTIC IMAGING” (CANON KABUSHIKI KAISHA, priority 2013, published 2015):
# Assay: Hydrophobicity evaluation of hydrophobic metal phthalocyanine dye by TLC (Rf value)
# Type: physicochemical
# Details: TLC glass plate RP-18, methanol containing 1% by weight lithium chloride; value of the dye used
# Method: To compare the hydrophobicities of hydrophobic metal phthalocyanine dyes, evaluation was carried out using a thin-layer liquid chromatography (hereinafter sometimes abbreviated as TLC) method.
# A TLC glass plate, RP-18 (from Merck & Co., Inc.), was used as a development plate, and a methanol solution containing 1% by weight of lithium chloride was used as a development solvent.
# According to an established method, a dye solution was spotted on the starting line and the relative migration distance (hereinafter sometimes abbreviated as Rf value) was calculated based on the following equation. Rf value=the distance from the starting line to the center of the spot of the component/the distance from the starting line to the top of the solvent
row,Rf Value,Substance
1,0.08,"Cobalt 2,9,16,23-tetra-tert-butyl-29H,31H-phthalocyanine"
2,0.06,"Copper (II) 2,9,16,23-tetra-tert-butyl-29H,31H-phthalocyanine"
3,0.10,"Zinc 2,9,16,23-tetra-tert-butyl-29H,31H-phthalocyanine"
4,0.12,tert-butyl silicon-[bis trimethylsiloxy]-phthalocyanine
